≈ marks a conversion by molar mass, not a printed value.
Key:
[1] = tested on: Human immunodeficiency virus 1; test: Antiviral activity against HIV1 harboring RT E138K mutant infected in human MT4 cells assessed as inhibition of virus-induced cytopathic effect incubated for 5 days by MTT assay; format: functional, organism-based; conditions: Human immunodeficiency virus 1, MT4, 120 h
[2] = Cytotoxicity against human MT4 cells assessed as reduction in cell viability incubated for 5 days by MTT assay; format: cell-based; conditions: time 5 day
[3] = Resistance index, ratio of EC50 for antiviral activity against HIV1 expressing RT K103N mutant infected in human MT4 cells to EC50 for antiviral activity against HIV1 3B infected in human MT4 cells; format: functional
[4] = Resistance index, ratio of EC50 for antiviral activity against HIV1 expressing RT Y181C mutant infected in human MT4 cells to EC50 for antiviral activity against HIV1 3B infected in human MT4 cells; format: functional
[5] = Selectivity index, ratio of CC50 for human MT4 cells to EC50 for antiviral activity against HIV1 RES056 infected in human MT4 cells; format: toxicity, cell-based; conditions: read-out: Ratio CC50/EC50
[6] = tested on: Human immunodeficiency virus 1; test: Antiviral activity against HIV1 RES056 infected in human MT4 cells assessed as inhibition of virus-induced cytopathic effect incubated for 5 days by MTT assay; format: functional, organism-based; conditions: Human immunodeficiency virus 1, RES056, MT4, 120 h
[7] = tested on: Human immunodeficiency virus 1; test: Antiviral activity against HIV1 3B infected in human MT4 cells assessed as virus-induced cytopathic effect incubated for 5 days by MTT assay; format: functional, organism-based; conditions: Human immunodeficiency virus 1, 3B, MT4, 120 h
[8] = tested on: Human immunodeficiency virus 1; test: Antiviral activity against HIV1 harboring RT Y181C mutant infected in human MT4 cells assessed as inhibition of virus-induced cytopathic effect incubated for 5 days by MTT assay; format: functional, organism-based; conditions: Human immunodeficiency virus 1, MT4, 120 h
[9] = tested on: Human immunodeficiency virus 1; test: Antiviral activity against HIV1 harboring RT K103N mutant infected in human MT4 cells assessed as inhibition of virus-induced cytopathic effect incubated for 5 days by MTT assay; format: functional, organism-based; conditions: Human immunodeficiency virus 1, MT4, 120 h
[10] = Resistance index, ratio of EC50 for antiviral activity against HIV1 expressing RT L100I mutant infected in human MT4 cells to EC50 for antiviral activity against HIV1 3B infected in human MT4 cells; format: functional
[11] = tested on: Human immunodeficiency virus 1; test: Potency index, ratio of lamivudine EC50 to test compound EC50 for antiviral activity against HIV1 harboring K103N mutant infected in human MT4 cells; format: functional
[12] = tested on: Human immunodeficiency virus 1; test: Antiviral activity against HIV1 harboring RT L100I mutant infected in human MT4 cells assessed as inhibition of virus-induced cytopathic effect incubated for 5 days by MTT assay; format: functional, organism-based; conditions: Human immunodeficiency virus 1, MT4, 120 h
[13] = Resistance index, ratio of EC50 for antiviral activity against HIV1 expressing RT E138K mutant infected in human MT4 cells to EC50 for antiviral activity against HIV1 3B infected in human MT4 cells; format: functional
[14] = tested on: Human immunodeficiency virus 1; test: Potency index, ratio of nevirapine EC50 to test compound EC50 for antiviral activity against HIV1 harboring K103N mutant infected in human MT4 cells; format: functional
[15] = Resistance index, ratio of EC50 for antiviral activity against HIV1 expressing RT F227L/V106A mutant infected in human MT4 cells to EC50 for antiviral activity against HIV1 3B infected in human MT4 cells; format: functional
[16] = tested on: Human immunodeficiency virus 1; test: Antiviral activity against HIV1 harboring RT F227L/V106Amutant infected in human MT4 cells assessed as inhibition of virus-induced cytopathic effect incubated for 5 days by MTT assay; format: functional, organism-based; conditions: Human immunodeficiency virus 1, MT4, 120 h
[17] = Resistance index, ratio of EC50 for antiviral activity against HIV1 expressing RT Y188L mutant infected in human MT4 cells to EC50 for antiviral activity against HIV1 3B infected in human MT4 cells; format: functional
[18] = tested on: Human immunodeficiency virus 1; test: Antiviral activity against HIV1 harboring RT Y188L mutant infected in human MT4 cells assessed as inhibition of virus-induced cytopathic effect incubated for 5 days by MTT assay; format: functional, organism-based; conditions: Human immunodeficiency virus 1, MT4, 120 h
[19] = Selectivity index, ratio of CC50 for human MT4 cells to EC50 for antiviral activity against HIV1 3B infected in human MT4 cells; format: toxicity, cell-based; conditions: read-out: Ratio CC50/EC50
[20] = Inhibition of HIV1 reverse transcriptase assessed as reduction in biotin-dUTP incorporation into template preincubated for 1 hr followed by template/primer and dNTP addition and measured after 1 hr by ELISA; set-up: species or system Human immunodeficiency virus 1
[21] = tested on: Human immunodeficiency virus 1; test: Potency index, ratio of zidovudine EC50 to test compound EC50 for antiviral activity against HIV1 3B infected in human MT4 cells; format: functional
[22] = Solubility of compound in water at pH 7; format: physicochemical
[23] = tested on: Human immunodeficiency virus 1; test: Potency index, ratio of lamivudine EC50 to test compound EC50 for antiviral activity against HIV1 3B infected in human MT4 cells; format: functional
[24] = Solubility of compound in water at pH 7.4; format: physicochemical
[25] = Solubility of compound in water at pH 2; format: physicochemical

SMILES	EC50 [1] [µM]	CC50 at 120 h [2] [µM]	Ratio EC50 [3]	Ratio EC50 [4]	selectivity ratio [5]	EC50 [6] [µM]	EC50 [7] [µM]	EC50 [8] [µM]	EC50 [9] [µM]	Ratio EC50 [10]	EC50 [12] [µM]	Ratio EC50 [13]	Ratio EC50 [15]	EC50 [16] [µM]	Ratio EC50 [17]	EC50 [18] [µM]	selectivity ratio [19]	other results
Cc1cc(C#N)cc(C)c1Oc1nc(NC2CCN(CCN3CCOCC3)CC2)nc2cc(F)ccc12	0.963	16.9	2.2	5.6	< 1	> 16.9	0.241	1.35	0.522	5.1	1.24	4	12.1	2.92	10	2.4	70	Ratio EC50 [11]: 8; Ratio EC50 [14]: 10
Cc1cc(C#N)cc(C)c1Oc1nc(NC2CCN(CC(=O)N3CCOCC3)CC2)nc2c1SCC2	1.31	38.6	21.9	93.5	< 1	> 38.6	0.058	5.45	1.28	105	6.12	22.6	>662.9	> 38.6	89.4	5.21	663	IC50 [20]: 3.37 µM; Ratio EC50 [21]: 2.8; solubility [22]: 35.2 µg/mL (≈ 69.2 µM); Ratio EC50 [23]: <=87; solubility [24]: 29.1 µg/mL (≈ 57.2 µM); solubility [25]: 248 µg/mL (≈ 488 µM)

— ChEMBL document CHEMBL4765457, “Targeting dual tolerant regions of binding pocket: Discovery of novel morpholine-substituted diarylpyrimidines as potent HIV-1 NNRTIs with significantly improved water solubility” (Eur J Med Chem, 2020)
